In patent US20030108576A1, “Composition” (Colgate-Palmolive Company, priority 2001, published 2003):

Assay: Vitamin E stability aging of the compositions in clear PET packaging
Format: physicochemical
Description: Samples of each example are put on stability aging using clear PET packaging at room temperature, 77° F.; high temperature, 110° F.; and in the window for natural sunlight exposure. Samples are evaluated for vitamin content initially, then again at 4,8, and 13 weeks. Below are the results.

CC(C)(C)c1cc(O)ccc1O [2-tertiary butyl hydroquinone]
retention of vitamin E compared with other antioxidants (77° F. and 110° F.): essentially equivalent to the other antioxidants | retention of vitamin E in sunlight compared with other test antioxidants (sunlight): substantially more retention of vitamin E in sunlight than any of the other test antioxidants
